Reference: patent publication US10118930B2, “Piperidinylpyrazolopyrimidinones and their use” (BAYER PHARMA AKTIENGESELLSCHAFT, priority 2015, dated 2018)
Where a name gives a salt, the structure may show the parent alone.

These compounds were tested on clot lysis (fibrinolysis) in diluted human citrated plasma, tPA-induced (assay: Plasma-based clot lysis assay (5%)). Conditions: human citrated platelet-poor plasma 5%, fibrinogen 3 μM, CaCl2 10 mM, tPA 0.2 nM, 37° C., OD at 405 nm.
Format: biochemical
Method in brief: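 Clot formation and breakdown triggered by CaCl2 (10 mM final) plus tPA (0.2 nM final) at 37° C, in 5% diluted human plasma supplemented with 3 μM fibrinogen (HEPES/NaCl/Brij buffer, pH 7). IC50 obtained from time courses relative to a blank control.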
For CS(=O)(=O)Cc1noc(-c2cnn3c(C4CCNCC4)cc(=O)[nH]c23)n1 [Example 191, 3-{3-[(methylsulfonyl)methyl]-1,2,4-oxadiazol-5-yl}-7-(piperidin-4-yl)pyrazolo[1,5-a]pyrimidin-5(4H)-one hydrochloride], the IC50 was 34 nM.
Work on O=c1cc(C2CCNCC2)n2ncc(-c3cccc(Cl)c3)c2[nH]1 [Example 48, 3-(3-Chlorophenyl)-7-(piperidin-4-yl)pyrazolo[1,5-a]pyrimidin-5(4H)-one hydrochloride] yielded an IC50 of 14 nM.
Cc1nn2c(C3CCNCC3)cc(=O)[nH]c2c1C(=O)N1CCC(C)(C)CC1 [Example 434, 3-[(4,4-dimethyl-piperidin-1-yl)carbonyl]-2-methyl-7-(piperidin-4-yl) pyrazolo[1,5-a] pyrimidin-5(4H)-one hydrochloride] gave an IC50 of 32 nM.
Cc1cc(CN(C)C(=O)c2cnn3c(C4CCNCC4)cc(=O)[nH]c23)no1 [Example 316, N-methyl-N-[(5-methyl-1,2-oxazol-3-yl)methyl]-5-oxo-7-(piperidin-4-yl)-4,5-dihydropyrazolo[1,5-a]pyrimidine-3-carboxamide hydrochloride] showed an IC50 of 27 nM.
With O=c1cc(C2CCNCC2)n2ncc(-c3ccc(F)c(Cl)c3)c2[nH]1 [Example 72, 3-(3-Chloro-4-fluorophenyl)-7-(piperidin-4-yl)pyrazolo[1,5-a]pyrimidin-5(4H)-one hydrochloride] the IC50 was 64 nM.
O=c1cc(C2CCNCC2)n2ncc(-c3nc(Cc4ccccc4Cl)no3)c2[nH]1 [Example 209, 3-[3-(2-chlorobenzyl)-1,2,4-oxadiazol-5-yl]-7-(piperidin-4-yl)pyrazolo[1,5-a]pyrimidin-5(4H)-one hydrochloride] was tested, and the IC50 was 36 nM.
Compound Cc1nn2c(C3CCNCC3)cc(=O)[nH]c2c1C(=O)N1CC2CCCCC2C1 (stereo not shown) [Example 413, 2-methyl-3-(octahydro-2H-isoindol-2-ylcarbonyl)-7-(piperidin-4-yl) pyrazolo[1,5-a] pyrimidin-5(4H)-one hydrochloride] has an IC50 of 35 nM.
O=c1cc(C2CCNCC2)n2ncc(CN3CCCC3)c2[nH]1 [Example 343, 7-(piperidin-4-yl)-3-(pyrrolidin-1-ylmethyl)pyrazolo[1,5-a]pyrimidin-5(4H)-one hydrochloride] gave an IC50 of 130 nM.
For Cc1nn2c(C3CCNCC3)cc(=O)[nH]c2c1C(=O)OCCCF [Example 464, 3-fluoropropyl 2-methyl-5-oxo-7-(piperidin-4-yl)-4,5-dihydropyrazolo[1,5-a]pyrimidine-3-carboxylate hydrochloride], the IC50 was 130 nM.
In the case of O=c1cc(C2CCNCC2)n2ncc(-c3nc(-c4ccc(F)cc4F)no3)c2[nH]1 [Example 158, 3-[3-(2,4-difluorophenyl)-1,2,4-oxadiazol-5-yl]-7-(piperidin-4-yl)pyrazolo[1,5-a]pyrimidin-5(4H)-one hydrochloride], the IC50 is reported as 38 nM.
With COC(=O)c1cnn2c(C3CCNCC3)cc(=O)[nH]c12 [Example 357, Methyl 5-oxo-7-(piperidin-4-yl)-4,5-dihydropyrazolo[1,5-a]pyrimidine-3-carboxylate hydrochloride] the IC50 was 14 nM.
O=c1cc(C2CCNCC2)n2ncc(-c3nc(Cc4ccc(Cl)c(Cl)c4)no3)c2[nH]1 [Example 213, 3-[3-(3,4-dichlorobenzyl)-1,2,4-oxadiazol-5-yl]-7-(piperidin-4-yl)pyrazolo[1,5-a]pyrimidin-5 (4H)-one hydrochloride] was tested, and the IC50 was 30 nM.
For CCCN(CC1CC1)C(=O)c1c(C)nn2c(C3CCNCC3)cc(=O)[nH]c12 [Example 406, N-(cyclopropyl-methyl)-2-methyl-5-oxo-7-(piperidin-4-yl)-N-propyl-4,5-dihydropyrazolo [1,5-a]pyrimidine-3-carboxamide hydrochloride], the IC50 was 37 nM.
In the case of Cc1ccc(S(C)(=O)=NC(=O)c2cnn3c(C4CCNCC4)cc(=O)[nH]c23)cc1 (stereo not shown) [Example 36, N-[Methyl(4-methylphenyl)oxido-lambda^6-sulfanylidene]-5-oxo-7-(piperidin-4-yl)-4,5-dihydropyrazolo[1,5-a]pyrimidine-3-carboxamide hydrochloride], the IC50 is reported as 28 nM.
Compound O=c1cc(C2CCNCC2)n2ncc(-c3nnc(C4CCCC4)o3)c2[nH]1 [Example 177, 3-(5-cyclopentyl-1,3,4-oxadiazol-2-yl)-7-(piperidin-4-yl)pyrazolo[1,5-a]pyrimidin-5(4H)-one hydrochloride] has an IC50 of 40 nM.
O=c1cc(C2CCNCC2)n2ncc(-c3noc(C=C4CCCC4)n3)c2[nH]1 [Example 384, 3-[5-(Cyclopentylidenemethyl)-1,2,4-oxadiazol-3-yl]-7-(piperidin-4-yl)pyrazolo[1,5-a]pyrimidin-5 (4H)-one hydrochloride] was tested, and the IC50 was 26 nM.
In the case of O=c1cc(C2CCNCC2)n2ncc(-c3nnc(C4(c5ccc(Cl)cc5)CC4)o3)c2[nH]1 [Example 278, 3-{5-[1-(4-chlorophenyl)cyclopropyl]-1,3,4-oxadiazol-2-yl}-7-(piperidin-4-yl)pyrazolo[1,5-a]pyrimidin-5(4H)-one hydrochloride], the IC50 is reported as 19 nM.
For Cc1ccc(NC(=O)c2cnn3c(C4CCNCC4)cc(=O)[nH]c23)cc1C [Example 85, N-(3,4-dimethylphenyl)-5-oxo-7-(piperidin-4-yl)-4,5-dihydropyrazolo[1,5-a]pyrimidine-3-carboxamide hydrochloride], the IC50 was 32 nM.
With Cc1nn2c(C3CCNCC3)cc(=O)[nH]c2c1C(=O)N1CCC(F)(F)C1 [Example 429, 3-[(3,3-difluoro-pyrrolidin-1-yl)carbonyl]-2-methyl-7-(piperidin-4-yl) pyrazolo[1,5-a] pyrimidin-5(4H)-one hydrochloride] the IC50 was 30 nM.
With O=c1cc(C2CCNCC2)n2ncc(-c3nc(-c4ccc(F)s4)no3)c2[nH]1 [Example 109, 3-[3-(5-fluorothiophen-2-yl)-1,2,4-oxadiazol-5-yl]-7-(piperidin-4-yl)pyrazolo[1,5-a]pyrimidin-5(4H)-one] the IC50 was 120 nM.
With O=c1cc(C2CCNCC2)n2ncc(-c3nnc(CC(F)(F)F)o3)c2[nH]1 [Example 289, 7-(piperidin-4-yl)-3-[5-(2,2,2-trifluoroethyl)-1,3,4-oxadiazol-2-yl]pyrazolo[1,5-a]pyrimidin-5(4H)-one hydrochloride] the IC50 was 27 nM.
In the case of COc1ccc(-c2noc(-c3cnn4c(C5CCNCC5)cc(=O)[nH]c34)n2)c(C)c1 [Example 154, 3-[3-(4-methoxy-2-methylphenyl)-1,2,4-oxadiazol-5-yl]-7-(piperidin-4-yl)pyrazolo[1,5-a]pyrimidin-5(4H)-one hydrochloride], the IC50 is reported as 24 nM.
Compound Cc1cccc(-c2noc(-c3cnn4c(C5CCNCC5)cc(=O)[nH]c34)n2)c1 [Example 120, 3-[3-(3-Methylphenyl)-1,2,4-oxadiazol-5-yl]-7-(piperidin-4-yl)pyrazolo[1,5-a]pyrimidin-5 (4H)-one hydrochloride] has an IC50 of 35 nM.
Work on COCCCc1nc(-c2cnn3c(C4CCNCC4)cc(=O)[nH]c23)no1 [Example 395, 3-(5-(3-methoxypropyl)-1,2,4-oxadiazol-3-yl)-7-(piperidin-4-yl)pyrazolo[1,5-a]pyrimidin-5(4H)-one hydrochloride] yielded an IC50 of 27 nM.
Compound O=c1cc(C2CCNCC2)n2ncc(-c3ccc(C(F)(F)F)cc3)c2[nH]1 [Example 57, 7-(Piperidin-4-yl)-3-[4-(trifluoromethyl)phenyl]pyrazolo[1,5-a]pyrimidin-5(4H)-one hydrochloride] has an IC50 of 21 nM.
CC(c1ccccc1)c1noc(-c2cnn3c(C4CCNCC4)cc(=O)[nH]c23)n1 (stereo not shown) [Example 215, 3-[3-(1-phenylethyl)-1,2,4-oxadiazol-5-yl]-7-(piperidin-4-yl)pyrazolo[1,5-a]pyrimidin-5(4H)-one hydrochloride] was tested, and the IC50 was 34 nM.
COC(=O)c1ccc(-c2noc(-c3cnn4c(C5CCNCC5)cc(=O)[nH]c34)n2)cc1 [Example 204, Methyl 4-{5-[5-oxo-7-(piperidin-4-yl)-4,5-dihydropyrazolo[1,5-a]pyrimidin-3-yl]-1,2,4-oxadiazol-3-yl}benzoate hydrochloride] was tested, and the IC50 was 35 nM.
Work on O=c1cc(C2CCNCC2)n2ncc(C3CC3)c2[nH]1 [Example 344, 3-cyclopropyl-7-(piperidin-4-yl)pyrazolo[1,5-a]pyrimidin-5(4H)-one hydrochloride] yielded an IC50 of 120 nM.
Cc1ccc(Cl)cc1-c1noc(-c2cnn3c(C4CCNCC4)cc(=O)[nH]c23)n1 [Example 141, 3-[3-(5-Chloro-2-methylphenyl)-1,2,4-oxadiazol-5-yl]-7-(piperidin-4-yl)pyrazolo[1,5-a]pyrimidin-5(4H)-one hydrochloride] was tested, and the IC50 was 74 nM.
Compound O=c1cc(C2CCNCC2)n2ncc(-c3noc(-c4cccc(Cl)c4)n3)c2[nH]1 [Example 226, 3-[5-(3-chlorophenyl)-1,2,4-oxadiazol-3-yl]-7-(piperidin-4-yl)pyrazolo[1,5-a]pyrimidin-5 (4H)-one hydrochloride] has an IC50 of 35 nM.
O=c1cc(C2CCNCC2)n2ncc(-c3nnc(-c4ccc(C(F)(F)F)cc4)o3)c2[nH]1 [Example 166, 7-(piperidin-4-yl)-3-{5-[4-(trifluoromethyl)phenyl]-1,3,4-oxadiazol-2-yl}pyrazolo[1,5-a]pyrimidin-5(4H)-one hydrochloride] showed an IC50 of 8.7 nM.
In the case of O=c1cc(C2CCNCC2)n2nc(-c3ccc(F)cc3)cc2[nH]1 [Example 27, 2-(4-Fluorophenyl)-7-(piperidin-4-yl)pyrazolo[1,5-a]pyrimidin-5(4H)-one hydrochloride], the IC50 is reported as 170 nM.
Cc1nn2c(C3CCNCC3)cc(=O)[nH]c2c1C(=O)OCCC(F)(F)F [Example 466, 3,3,3-trifluoropropyl 2-methyl-5-oxo-7-(piperidin-4-yl)-4,5-dihydropyrazolo[1,5-a]pyrimidine-3-carboxylate hydrochloride] gave an IC50 of 85 nM.
Cc1nn2c(C3CCNCC3)cc(=O)[nH]c2c1C(=O)N1CCCC1 [Example 415, 2-methyl-7-(piperidin-4-yl)-3-(pyrrolidin-1-ylcarbonyl) pyrazolo[1,5-a] pyrimidin-5(4H)-one hydrochloride] was tested, and the IC50 was 61 nM.
